Laboratory results: patent publication US20230131025A1, “QUINOLYL PHOSPHINE OXIDE COMPOUND, AND COMPOSITION AND APPLICATION THEREOF” (Betta Pharmaceuticals Co., Ltd., priority 2020, published 2023)

Experiments:
EGFR WT = EGFR WT (Homo sapiens, UniProt P00533); experiment: Kinase inhibition assay (mobility shift); format: biochemical
Procedure: (§1) Experiment 1 Kinase Inhibition Assay Mobility shift assays were performed to determine inhibitory activity of compounds against EGFR^Δ19del/T790M/C797S, EGFR WT and IGF1R kinases. The enzymatic reaction scheme is as follows:
(§2) 1. Preparing 1*Kinase Buffer as follows:
(§3) 2. Preparing compound concentration gradient: the initial concentration of the compound tested in the assay was 3,000 nM or 100 nM, which is then diluted to be 100-fold final concentration in 100% DMSO in a 384-source plate. Compounds in 10 concentrations were diluted in a 3-fold gradient with Precision. 250 nL of compound in 100-fold final concentration was transferred to OptiPlate-384F plate by using a dispenser named Echo 550.
(§4) 3. Preparing kinase solution at 2.5-fold the final concentration with 1×kinase buffer.
(§5) 4. Adding 10 μL of kinase solution at 2.5-fold the final concentration to compound wells and positive control wells respectively; and adding 10 μL of 1×kinase buffer to negative control wells.
(§6) 5. Centrifuging the wells at 1,000 rpm for 30 seconds, mixing the reaction plate well by shaking and incubating it at room temperature for 10 minutes.
(§7) 6. Preparing a mixed solution of ATP and kinase substrate at 5-fold/3-fold the final concentration with 1×Kinase buffer, respectively.
(§8) 7. Initiating the reaction by adding 15 μL of the mixed solution of ATP and kinase substrate at 5-fold/3-fold the final concentration.
(§9) 8. Centrifuging the 384-well plate at 1,000 rpm for 30 seconds, mixing the reaction plate well by shaking and incubating it at room temperature for a corresponding time.
(§10) 9. Adding 30 μL of assay stop solution to stop the kinase reaction, and centrifuging the plate at 1,000 rpm for 30 seconds and mixing it well by shaking.
(§11) 10. Reading the conversion rate with Caliper EZ Reader.
(§12) [formula] • wherein, “Conversion % sample” is the conversion rate reading of the sample;
(§13) “Conversion %_min” is the mean value of the negative control wells, representing the conversion rate readings of the well without enzymatic activity; “Conversion %_max” is the mean value of the positive control wells, representing the conversion rate readings of the wells without compound inhibition. • Dose-response curve is plotted with the logarithmic concentration on the X-axis and percent inhibition on the Y-axis. The fitting of the dose-response curve is made with the module “log(inhibitor) vs. response—Variable slope” of the analysis software GraphPad Prism 5, so that the IC50 value of each compound on enzymatic activity is obtained. • The calculation formula is: Y=Bottom+(Top−Bottom)/(1+10^((Log IC50−X)*HillSlope)).

EGFR Δ19del/T790M/C797S = EGFR Δ19del/T790M/C797S (Homo sapiens, UniProt P00533, T790M/C797S, form not given); experiment: Kinase inhibition assay (mobility shift); format: biochemical
Procedure: as §1, §2, §3, §4, §5, §6, §7, §8, §9, §10, §11, §12, §13

IGF1R = IGF1R (Homo sapiens, UniProt P08069); experiment: Kinase inhibition assay (mobility shift); format: biochemical
Procedure: as §1, §2, §3, §4, §5, §6, §7, §8, §9, §10, §11, §12, §13

Ba/F3 EGFR WT = Ba/F3 EGFR WT (Homo sapiens, UniProt P00533); experiment: Cell proliferation experiment (CellTiter Glo, 72 hours); format: cell-based; conditions: read-out: BaF3 EGFR WT IC50
Procedure: (§14) Experiment 2 Cell Proliferation Experiment
(§15) Suspension cells: Ba/F3 cells with stable overexpression of Δ19del/T790M/C797S mutant gene, named Ba/F3-Δ19del/T790M/C797S; Ba/F3 cells with overexpression of EGFR WT, named Ba/F3 EGFR WT.
(§16) RPMI 1640 with 10% FBS and 1% Penicillin-Streptomycin, or DMEM with 10% FBS and 1% Penicillin-Streptomycin.
(§17) a) Diluting compounds being tested (20 mM stock solutions), as an initial concentration, to 10 mM with 100% DMSO, followed by diluting compounds serially in a 3-fold gradient such that each compound is diluted into 12 concentrations (Cat #P-05525, Labcyte).
(§18) b) Diluting the above compound solutions for 100-fold with culture medium to prepare 10-fold working solution.
(§19) b) Seeding cells into 96-well cell culture plate at a density of 2000 or 3000 cells/well, with 135 μL/well.
(§20) a) Adding the compound prepared in step 2 to the cell plate at 15 μL per well, resulting in a final maximum concentration of 10000 nM or 1111 nM. The compounds is diluted serially in a 3-fold gradient such that each compound is diluted into 9 concentrations, wherein the final concentration of DMSO is 0.1%. Blank control wells are added with medium (0.1% DMSO).
(§21) b) Re-incubating the cells in an incubator for 72 hours. 5. Detection
(§22) a) Adding 50 μL of CTG reagent (CellTiter Glo kit, promega, Cat #G7573) to the 96-well cell culture plate.
(§23) b) Shaking the plate for 2 minutes and reacting at room temperature for 10 minutes.
(§24) c) Reading the luminescence signal value (Lum) using PerkinElmer reader.
(§25) The cell survival inhibition rate of each well was calculated. The data was analyzed by GraphPad Prism 6.0 software. The dose-response curve was obtained by fitting the data with a nonlinear regression equation. The IC50 of each compound was calculated as follows:
(§26) Cell survival inhibition rate (%)=(1−(Lumcompound tested−Lummedium control)/(Lumcell control−Lummedium control))×100%
(§27) Y=Min+(Max−Min)/(1+10^((Log IC50−X)*Slope));
(§28) X: logarithm of compound concentration. Y: cell survival inhibition rate.

Ba/F3-Δ19del/T790M/C797S = Ba/F3-Δ19del/T790M/C797S (Homo sapiens, UniProt P00533, T790M/C797S, cells depend on it, form not given); experiment: as above; format: cell-based; conditions: read-out: Ba/F3/EGFR Δ19del/T790M/C797S IC50
Procedure: as §14, §15, §16, §17, §18, §19, §20, §21, §22, §23, §24, §25, §26, §27, §28

[1] = test system: human epidermal cancer cells A431 carrying EGFR WT; experiment: as above; format: cell-based; conditions: Homo sapiens, A-431
Procedure: as §14
Adherent cells: human epidermal cancer cells A431 carrying EGFR WT.
as §16, §17, §18, §19, §20, §21, §22, §23, §24, §25, §26, §27, §28

Chain of IGF1R (P08069 31-1367, species assumed): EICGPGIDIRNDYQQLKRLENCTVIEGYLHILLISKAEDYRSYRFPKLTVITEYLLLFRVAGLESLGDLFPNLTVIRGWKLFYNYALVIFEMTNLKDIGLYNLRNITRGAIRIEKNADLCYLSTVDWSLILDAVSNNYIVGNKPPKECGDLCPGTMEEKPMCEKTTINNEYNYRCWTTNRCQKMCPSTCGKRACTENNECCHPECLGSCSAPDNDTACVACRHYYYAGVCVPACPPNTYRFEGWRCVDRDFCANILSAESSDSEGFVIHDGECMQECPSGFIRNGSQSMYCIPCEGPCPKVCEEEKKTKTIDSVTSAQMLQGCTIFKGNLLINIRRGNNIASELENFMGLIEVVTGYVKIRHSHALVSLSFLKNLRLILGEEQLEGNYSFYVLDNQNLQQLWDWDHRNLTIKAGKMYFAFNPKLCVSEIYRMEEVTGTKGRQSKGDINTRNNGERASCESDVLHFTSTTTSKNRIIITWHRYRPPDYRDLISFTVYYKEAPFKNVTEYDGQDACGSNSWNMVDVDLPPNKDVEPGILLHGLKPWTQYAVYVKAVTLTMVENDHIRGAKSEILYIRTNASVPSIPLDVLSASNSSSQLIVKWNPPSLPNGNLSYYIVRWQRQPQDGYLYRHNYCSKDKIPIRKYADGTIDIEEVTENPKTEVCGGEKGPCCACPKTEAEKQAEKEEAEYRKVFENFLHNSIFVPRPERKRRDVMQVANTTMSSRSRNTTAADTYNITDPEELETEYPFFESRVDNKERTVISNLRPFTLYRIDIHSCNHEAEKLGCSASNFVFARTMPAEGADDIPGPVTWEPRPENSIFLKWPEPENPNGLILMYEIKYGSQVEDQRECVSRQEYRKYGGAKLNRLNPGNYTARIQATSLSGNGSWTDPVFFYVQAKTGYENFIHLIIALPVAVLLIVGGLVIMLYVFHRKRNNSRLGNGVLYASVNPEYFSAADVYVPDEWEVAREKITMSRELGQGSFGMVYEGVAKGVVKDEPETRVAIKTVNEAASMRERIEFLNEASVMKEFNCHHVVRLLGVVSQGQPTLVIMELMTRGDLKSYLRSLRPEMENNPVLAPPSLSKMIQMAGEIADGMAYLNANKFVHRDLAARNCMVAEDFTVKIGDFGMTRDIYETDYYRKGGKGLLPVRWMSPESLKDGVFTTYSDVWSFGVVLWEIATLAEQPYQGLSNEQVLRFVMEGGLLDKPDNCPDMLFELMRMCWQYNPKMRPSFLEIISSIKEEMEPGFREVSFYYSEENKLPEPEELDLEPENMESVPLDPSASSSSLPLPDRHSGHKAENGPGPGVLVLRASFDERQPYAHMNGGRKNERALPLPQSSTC
Chain of Ba/F3 EGFR WT (P00533 whole entry, change not shown): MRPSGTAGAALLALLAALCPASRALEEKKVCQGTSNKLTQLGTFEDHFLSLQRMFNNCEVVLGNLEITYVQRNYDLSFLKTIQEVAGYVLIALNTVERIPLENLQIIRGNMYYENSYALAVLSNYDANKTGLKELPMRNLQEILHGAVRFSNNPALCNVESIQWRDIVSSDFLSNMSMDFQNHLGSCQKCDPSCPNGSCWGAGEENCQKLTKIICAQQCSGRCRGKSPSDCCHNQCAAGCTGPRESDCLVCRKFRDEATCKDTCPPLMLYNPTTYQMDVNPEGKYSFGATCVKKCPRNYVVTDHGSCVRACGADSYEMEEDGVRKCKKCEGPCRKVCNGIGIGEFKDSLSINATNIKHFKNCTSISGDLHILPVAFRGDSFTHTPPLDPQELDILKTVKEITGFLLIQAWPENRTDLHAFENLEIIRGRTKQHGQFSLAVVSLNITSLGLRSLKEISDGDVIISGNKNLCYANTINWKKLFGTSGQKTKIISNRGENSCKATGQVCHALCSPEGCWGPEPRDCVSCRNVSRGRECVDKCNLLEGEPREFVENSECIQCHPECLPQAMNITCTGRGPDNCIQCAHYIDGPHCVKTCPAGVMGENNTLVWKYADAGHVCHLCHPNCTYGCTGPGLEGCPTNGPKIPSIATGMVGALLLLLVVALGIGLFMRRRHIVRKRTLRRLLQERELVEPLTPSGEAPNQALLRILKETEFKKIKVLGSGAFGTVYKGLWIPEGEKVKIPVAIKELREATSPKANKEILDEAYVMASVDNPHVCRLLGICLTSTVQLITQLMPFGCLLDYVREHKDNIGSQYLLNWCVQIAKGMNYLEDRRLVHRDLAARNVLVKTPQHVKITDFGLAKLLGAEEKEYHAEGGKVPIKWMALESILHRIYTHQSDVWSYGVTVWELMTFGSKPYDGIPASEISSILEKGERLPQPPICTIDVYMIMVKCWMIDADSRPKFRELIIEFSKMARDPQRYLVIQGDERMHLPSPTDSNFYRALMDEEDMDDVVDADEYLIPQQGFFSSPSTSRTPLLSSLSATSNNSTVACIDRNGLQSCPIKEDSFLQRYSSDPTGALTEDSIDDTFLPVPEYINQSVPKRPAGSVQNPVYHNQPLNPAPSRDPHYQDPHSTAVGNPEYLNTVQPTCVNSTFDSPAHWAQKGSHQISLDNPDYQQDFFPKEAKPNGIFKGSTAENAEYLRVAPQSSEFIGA
Chain of Ba/F3-Δ19del/T790M/C797S (P00533 with tags, fused parts or gaps DEL746-750/T790M/C797S, form open): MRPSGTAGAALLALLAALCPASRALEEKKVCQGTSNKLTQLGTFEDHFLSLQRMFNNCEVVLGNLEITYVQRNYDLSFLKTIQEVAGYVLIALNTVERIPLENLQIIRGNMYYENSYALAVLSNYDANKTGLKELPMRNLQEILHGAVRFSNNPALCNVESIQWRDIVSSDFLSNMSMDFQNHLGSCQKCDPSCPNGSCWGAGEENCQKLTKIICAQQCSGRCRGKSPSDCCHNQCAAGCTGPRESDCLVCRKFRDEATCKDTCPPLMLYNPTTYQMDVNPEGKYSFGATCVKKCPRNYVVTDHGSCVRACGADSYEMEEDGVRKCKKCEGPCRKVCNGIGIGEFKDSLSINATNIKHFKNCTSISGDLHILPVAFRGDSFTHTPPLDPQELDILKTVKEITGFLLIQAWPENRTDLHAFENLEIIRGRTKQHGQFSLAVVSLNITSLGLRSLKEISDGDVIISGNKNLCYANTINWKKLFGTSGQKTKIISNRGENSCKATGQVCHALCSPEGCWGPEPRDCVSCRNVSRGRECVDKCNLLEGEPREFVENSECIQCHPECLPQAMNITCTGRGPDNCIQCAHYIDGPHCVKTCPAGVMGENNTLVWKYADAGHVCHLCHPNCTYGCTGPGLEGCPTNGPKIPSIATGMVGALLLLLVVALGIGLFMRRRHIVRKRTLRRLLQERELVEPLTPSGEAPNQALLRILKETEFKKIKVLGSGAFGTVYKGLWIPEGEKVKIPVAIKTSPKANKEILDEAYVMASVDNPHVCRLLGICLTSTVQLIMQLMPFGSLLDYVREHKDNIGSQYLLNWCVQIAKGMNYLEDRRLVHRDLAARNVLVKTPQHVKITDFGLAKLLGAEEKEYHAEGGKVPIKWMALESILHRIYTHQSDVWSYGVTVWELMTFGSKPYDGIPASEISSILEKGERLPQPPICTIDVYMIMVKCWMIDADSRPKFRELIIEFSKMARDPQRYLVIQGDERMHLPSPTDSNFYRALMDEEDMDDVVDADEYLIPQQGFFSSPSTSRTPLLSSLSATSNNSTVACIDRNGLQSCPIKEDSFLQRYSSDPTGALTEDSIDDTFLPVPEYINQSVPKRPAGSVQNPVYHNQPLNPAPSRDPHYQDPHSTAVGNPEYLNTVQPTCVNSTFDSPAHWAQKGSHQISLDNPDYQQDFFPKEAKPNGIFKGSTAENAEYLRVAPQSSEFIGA
Chain of EGFR Δ19del/T790M/C797S (P00533 with tags, fused parts or gaps DEL746-750/T790M/C797S, form open): as above

## COc1cc(Nc2ncc(Br)c(Nc3ccc4nc(C5CC5)ccc4c3P(C)(C)=O)n2)c(C(C)C)cc1N1CCOCC1 [Compound J-005, (6-((5-Bromo-2-((2-isopropyl-5-methoxy-4-morpholinylphenyl)amino)pyrimidin-4-yl)amino)-2-cyclopropylquinoline-5-yl)dimethylphosphine oxide]
EGFR WT
  IC50: 132 nM
EGFR Δ19del/T790M/C797S
  IC50: 0.5 nM
IGF1R
  IC50: 74.4 nM
Ba/F3 EGFR WT
  GI50: 698 nM
Ba/F3-Δ19del/T790M/C797S
  GI50: 27 nM
[1]
  IC50: 6140 nM

## CCc1cc(Nc2ncc(Br)c(Nc3ccc4nc(C5CC5)ccc4c3P(C)(C)=O)n2)c(C)cc1N1CCC(N2CCN(C)CC2)CC1 [Compound J-027, (6-((5-Bromo-2-((5-ethyl-2-methyl-4-(4-(4-methylpiperazin-1-yl)piperidin-1-yl)phenyl)amino)pyrimidin-4-yl)amino)-2-cyclopropylquinolin-5-yl)dimethylphosphine oxide]
EGFR WT
  IC50: 11.1 nM
EGFR Δ19del/T790M/C797S
  IC50: 0.3 nM
IGF1R
  IC50: 61.6 nM
Ba/F3 EGFR WT
  GI50: 52 nM
Ba/F3-Δ19del/T790M/C797S
  GI50: 1.4 nM
[1]
  IC50: 9010 nM

## C#Cc1ccc2c(P(C)(C)=O)c(Nc3nc(Nc4cc(CC)c(N5CCC(N6CCN(C)CC6)CC5)cc4OC)ncc3Br)ccc2n1 [Compound J-014, (6-((5-Bromo-2-((5-ethyl-2-methoxy-4-(4-(4-methylpiperazin-1-yl)piperidin-1-yl)phenyl)amino)pyrimidin-4-yl)amino)-2-ethynylquinolin-5-yl)dimethylphosphine oxide]
EGFR WT
  IC50: 4.7 nM
EGFR Δ19del/T790M/C797S
  IC50: 0.19 nM
IGF1R
  IC50: 58 nM
Ba/F3 EGFR WT
  GI50: 108 nM
Ba/F3-Δ19del/T790M/C797S
  GI50: 6 nM
[1]
  IC50: 514 nM

## CCCc1ccc2c(P(C)(C)=O)c(Nc3nc(Nc4cc(C)c(N5CCC(N6CCN(C)CC6)CC5)cc4OC)ncc3Br)ccc2n1 [Compound J-042, (6-((5-Bromo-2-((2-methoxy-5-methyl-4-(4-(4-methylpiperazin-1-yl)piperidin-1-yl)phenyl)amino)pyrimidin-4-yl)amino)-2-propylquinolin-5-yl)dimethylphosphine oxide]
EGFR WT
  IC50: 21.1 nM
EGFR Δ19del/T790M/C797S
  IC50: 0.3 nM
IGF1R
  IC50: 107 nM
Ba/F3 EGFR WT
  GI50: 296 nM
Ba/F3-Δ19del/T790M/C797S
  GI50: 8.18 nM
[1]
  IC50: 373 nM

## COc1cc(Nc2ncc(Br)c(Nc3ccc4nc(C5CC5)ccc4c3P(C)(C)=O)n2)c(C)cc1N1CCC(N(C)C)CC1 [Compound J-009, (6-((5-Bromo-2-((4-(4-(dimethylamino)piperidin-1-yl)-5-methoxy-2-methylphenyl)amino)pyrimidine-4-yl)amino)-2-cyclopropylquinolin-5-yl)dimethylphosphine oxide]
EGFR WT
  IC50: 14.4 nM
EGFR Δ19del/T790M/C797S
  IC50: 0.3 nM
IGF1R
  IC50: 14.8 nM
Ba/F3 EGFR WT
  GI50: 168 nM
Ba/F3-Δ19del/T790M/C797S
  GI50: 16.3 nM
[1]
  IC50: 384 nM

## CCc1cc(Nc2ncc(Br)c(Nc3ccc4nc(C#N)ccc4c3P(C)(C)=O)n2)c(OC)cc1N1CCC(N2CCN(C)CC2)CC1 [Compound J-016, 6-((5-Bromo-2-((5-ethyl-2-methoxy-4-(4-(4-methylpiperazin-1-yl)piperidin-1-yl)phenyl)amino)pyrimidin-4-yl)amino)-5-(dimethylphosphineoxide)quinoline-2-formonitrile]
EGFR WT
  IC50: 4.6 nM
EGFR Δ19del/T790M/C797S
  IC50: 0.3 nM
IGF1R
  IC50: 16.8 nM
Ba/F3 EGFR WT
  GI50: 132 nM
Ba/F3-Δ19del/T790M/C797S
  GI50: 5.1 nM
[1]
  IC50: 379 nM

## COc1cc(N2CCC(N3CCN(C)CC3)CC2)c(C)cc1Nc1ncc(Br)c(Nc2ccc3nc(C(C)C)ccc3c2P(C)(C)=O)n1 [Compound J-034, (6-((5-Bromo-2-((2-methoxy-5-methyl-4-(4-(4-methylpiperazin-1-yl)piperidin-1-yl)phenyl)amino)pyrimidin-4-yl)amino)-2-isopropylquinolin-5-yl)dimethylphosphine oxide]
EGFR WT
  IC50: 23 nM
EGFR Δ19del/T790M/C797S
  IC50: 0.12 nM
IGF1R
  IC50: 298 nM
Ba/F3 EGFR WT
  GI50: 189 nM
Ba/F3-Δ19del/T790M/C797S
  GI50: 5.8 nM
[1]
  IC50: 440 nM

## COc1cc(N2CCN(C)CC2)c(C)cc1Nc1ncc(Br)c(Nc2ccc3nc(C4CC4)ccc3c2P(C)(C)=O)n1 [Compound J-010, (6-((5-Bromo-2-((2-methoxy-5-methyl-4-(4-methylpiperazin-1-yl)phenyl)amino)pyrimidin-4-yl)amino)-2-cyclopropylquinolin-5-yl)dimethylphosphine oxide]
EGFR WT
  IC50: 79 nM
EGFR Δ19del/T790M/C797S
  IC50: 0.2 nM
IGF1R
  IC50: 142 nM
Ba/F3 EGFR WT
  GI50: 187 nM
Ba/F3-Δ19del/T790M/C797S
  GI50: 11.5 nM
[1]
  IC50: 969 nM

## COc1cc(Nc2ncc(Br)c(Nc3ccc4nc(C5CC5)ccc4c3P(C)(C)=O)n2)c(C2CCOCC2)cc1N1CCC(N2CCN(C)CC2)CC1 [Compound J-026, (6-((5-Bromo-2-((5-methoxy-4-(4-(4-methylpiperazin-1-yl)piperidin-1-yl)-2-(tetrahydro-2H-pyran-4-yl)phenyl)amino)pyrimidin-4-yl)amino)-2-cyclopropylquinolin-5-yl)dimethylphosphine oxide]
EGFR WT
  IC50: > 3000 nM
EGFR Δ19del/T790M/C797S
  IC50: 36 nM
IGF1R
  IC50: > 3000 nM

## COc1cc(Nc2ncc(Br)c(Nc3ccc4nc(C5CC5)ccc4c3P(C)(C)=O)n2)c(C2CC2)cc1N1CCOCC1 [Compound J-004, (6-((5-Bromo-2-((2-cyclopropyl-5-methoxy-4-morpholinylphenyl)amino)pyrimidin-4-yl)amino)-2-cyclopropylquinoline-5-yl)dimethylphosphine oxide]
EGFR WT
  IC50: 283 nM
EGFR Δ19del/T790M/C797S
  IC50: 0.7 nM
IGF1R
  IC50: 380 nM

## COc1cc(N2CCOCC2)c(C#N)cc1Nc1ncc(Br)c(Nc2ccc3nc(C4CC4)ccc3c2P(C)(C)=O)n1 [Compound J-002, 5-((5-Bromo-4-((2-cyclopropyl-5-(dimethylphosphineoxide)quinolin-6-yl)amino)pyrimidin-2-yl)amino)-4-methoxy-2-morpholinebenzonitrile]
EGFR WT
  IC50: 62.8 nM
EGFR Δ19del/T790M/C797S
  IC50: 0.4 nM
IGF1R
  IC50: 720 nM

## CCc1cc(Nc2ncc(Br)c(Nc3ccc4nc(-c5cnn(C)c5)ccc4c3P(C)(C)=O)n2)c(OC)cc1N1CCC(N2CCN(C)CC2)CC1 [Compound J-017, (6-((5-Bromo-2-((5-ethyl-2-methoxy-4-(4-(4-methylpiperazin-1-yl)piperidin-1-yl)phenyl)amino)pyrimidin-4-yl)amino)-2(1-methyl-1H-pyrazol-4-yl)quinolin-5-yl)dimethylphosphine oxide]
EGFR WT
  IC50: 18.4 nM
EGFR Δ19del/T790M/C797S
  IC50: 0.3 nM
IGF1R
  IC50: 246 nM

## COc1cc(N2CCN(C3CC3)CC2)c(C)cc1Nc1ncc(Br)c(Nc2ccc3nc(C4CC4)ccc3c2P(C)(C)=O)n1 [Compound J-038, (6-((5-Bromo-2-((4-(4-cyclopropylpiperazin-1-yl)-2-methoxy-5-methylphenyl)amino)pyrimidin-4-yl)amino)-2-cyclopropylquinolin-5-yl)dimethylphosphine oxide]
EGFR WT
  IC50: 171 nM
EGFR Δ19del/T790M/C797S
  IC50: 0.9 nM
IGF1R
  IC50: 586 nM
